Experiments:
[1] = test system: rat hippocampal slices (glutamate release); assay: TRH inhibition of [K+]-stimulated glutamate release from superfused hippocampal slices in vitro; assay type: cell-based; conditions: for glutamate at 10 min. post stimulation: control 4.37±1.29; for peak 50 mM [K+]-stimulated glutamate release: control 48.05±8.59
Text: TRH INHIBITION OF [K^+]-STIMULATED GLUTAMATE RELEASE FROM HIPPOCAMPAL SLICES IN VITRO. Enhanced excitatory amino acid release is suspected in pathways associated with seizures and excitotoxicity. In this regard, superfused hippocampal slices were used to investigate the hypothesis that TRH could inhibit glutamate release in vitro. Rat hippocampi were removed and sliced transversely (500 μm) under low magnification. Slices were weighed, washed in cold saline, transferred to individual tissue chambers floated in a 37° C. water bath and were equilibrated in oxygenated (95% O2/5% CO2), (37° C.) Kreb's buffer (KRB) for 120 min. (0.5 ml/min.). Slice chambers were then superfused 10 min. with KRB (control), or KRB containing 10 μM, 1 μM, or 0.1 μM TRH respectively, prior to 5 min. stimulation with modified KRB (50 mM [K^+]±TRH). Fractions (1 min.) were collected during the 5 min. stimulation and for an additional 10 min. (0.5 ml/min.) thereafter, and analyzed for glutamate by HPLC.

[2] = test system: Gαq/11 G proteins (TRH receptor); conditions: sustained TRH exposure (16 hr.) to its receptor; cited from earlier work

NC(=O)[C@@H]1CCCN1C(=O)[C@H](Cc1cnc[nH]1)NC(=O)[C@@H]1CCC(=O)N1 [TRH, Thyrotropin-releasing hormone]
glutamate at 10 min. post stimulation ([1]; 0.1 μM TRH): 1.54±0.43 μM/g/fraction | peak 50 mM [K+]-stimulated glutamate release ([1]; 0.1 μM TRH): 1.38±0.28 μM/g/fraction | glutamate at 10 min. post stimulation ([1]; 1 μM TRH): 1.11±0.26 μM/g/fraction | peak 50 mM [K+]-stimulated glutamate release ([1]; 1 μM TRH): 1.54±0.33 μM/g/fraction | glutamate at 10 min. post stimulation ([1]; 10 μM TRH): 1.35±0.48 μM/g/fraction | peak 50 mM [K+]-stimulated glutamate release ([1]; 10 μM TRH): 2.35±0.50 μM/g/fraction | glutamate release by 50 mM [K+]-stimulation given 15 min. later ([1]; 5 min. perfusion with KRB+10 μM TRH, p<0.05, FIG. 6): significantly (p<0.05) blocked | reduction of Gαq/11 G proteins [2]: 20-70%

— US7537787B2, “Method for modulating glutamate and/or aspartate release in a central nervous system locus” (Indiana University Research and Technology Corporation, priority 1996, dated 2009)
